From patent US20080275058A1, “N-Substituted-1H-Quinoline-2,4-Diones, Preparation Method Thereof, And Pharmaceutical Composition Containing The Same” (KOREA RESEARCH INSTITUTE OF CHEMICAL TECHNOLOGY, priority 2005, published 2008)
Like-named read-outs stand apart in the source and are kept apart here.

Legend:
[1] = molecular target: T1, hD4.2 receptor (Homo sapiens, UniProt P21917, DEL265-296); experiment: Radioligand binding, dopamine D4 ([3H]YM-09151-2); settings: Table 4; [3H]YM-09151-2 0.06 nM; read-out: Binding affinity, IC50 (nM) D4
T1 construct: purchased BioSignal Packard Inc., Montreal, Canada
T1 sequence (P21917 with tags, fused parts or gaps DEL265-296): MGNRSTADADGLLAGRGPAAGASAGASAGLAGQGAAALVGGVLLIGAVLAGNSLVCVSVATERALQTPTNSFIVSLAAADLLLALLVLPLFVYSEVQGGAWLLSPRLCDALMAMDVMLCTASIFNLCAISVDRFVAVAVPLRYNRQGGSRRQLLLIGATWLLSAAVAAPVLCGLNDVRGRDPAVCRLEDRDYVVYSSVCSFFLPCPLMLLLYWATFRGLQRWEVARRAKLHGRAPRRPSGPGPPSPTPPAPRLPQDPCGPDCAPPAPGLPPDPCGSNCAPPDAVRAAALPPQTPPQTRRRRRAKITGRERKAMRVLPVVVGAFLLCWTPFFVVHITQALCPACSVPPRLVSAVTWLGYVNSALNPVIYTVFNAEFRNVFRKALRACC
How it was run: (§1)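 Membrane competition binding with [3H]spiperone (1 nM) for hD2L and hD3, or [3H]YM-09151-2 (0.06 nM) for hD4.2, each in receptor-specific Tris-HCl pH 7.4 buffer containing Mg2+/EDTA (D3 and D4 also with K+, Ca2+; D3 with 120 mM NaCl). Compounds were tested at 7-8 concentrations in duplicate, and IC50 was derived by nonlinear regression across three assays.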

[2] = molecular target: T2, hD2L (Homo sapiens, UniProt P14416); experiment: Radioligand binding, dopamine D2 ([3H]spiperone); settings: Table 4; [3H]spiperone 1 nM; read-out: Binding affinity, IC50 (nM) D2
T2 construct: purchased BioSignal Packard Inc., Montreal, Canada
T2 sequence (P14416 whole entry): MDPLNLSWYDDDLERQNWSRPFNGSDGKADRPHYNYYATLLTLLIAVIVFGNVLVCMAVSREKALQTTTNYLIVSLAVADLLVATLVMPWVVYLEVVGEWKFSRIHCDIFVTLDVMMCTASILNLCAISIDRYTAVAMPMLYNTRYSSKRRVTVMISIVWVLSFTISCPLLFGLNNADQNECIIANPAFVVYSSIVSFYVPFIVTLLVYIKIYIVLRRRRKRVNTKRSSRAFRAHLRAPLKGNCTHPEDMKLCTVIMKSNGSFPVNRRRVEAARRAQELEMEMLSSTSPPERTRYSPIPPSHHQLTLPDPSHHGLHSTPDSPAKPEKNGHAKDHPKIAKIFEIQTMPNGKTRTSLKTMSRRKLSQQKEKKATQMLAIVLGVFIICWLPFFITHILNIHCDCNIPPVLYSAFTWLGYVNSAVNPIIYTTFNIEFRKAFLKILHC
How it was run: as §1

[3] = Rotarod deficit in mice; format: in vivo, mouse; settings: mouse, in vivo, po, unit printed as image, read-out: TD50 (median neurotoxic dose)
Protocol: (§2) The mouse was placed on a 1 inch diameter knurled plastic rod rotating at 6 rpm (Ugo-Basile, Milano, Italy), and the rotarod deficit (%) was obtained by counting the number of animals fallen from the rotating rod within 1 min [Dunham et al., 1957] at 60, 90 and 120 min after the injection of the compound according to the invention(200, 300 or 400 ? ). […] The compounds of the examples were suspended in 3% Tween 80 solution, and were administered (p.o.) 60 min before the testing.

[4] = tested on: mice; experiment: Rotarod deficit in mice; format: in vivo, mouse
Protocol: as §2

[5] = molecular target: T3, 5-HT2c (Homo sapiens, UniProt P28335); experiment: Radioligand binding, 5-HT2c ([3H]Mesulergine); settings: Table 4; [3H]Mesulergine 1 nM; read-out: Binding affinity, IC50 (nM) 5-HT2c
T3 construct: purchased Euroscreen/BioSignal Packard Inc
T3 sequence (P28335 33-458): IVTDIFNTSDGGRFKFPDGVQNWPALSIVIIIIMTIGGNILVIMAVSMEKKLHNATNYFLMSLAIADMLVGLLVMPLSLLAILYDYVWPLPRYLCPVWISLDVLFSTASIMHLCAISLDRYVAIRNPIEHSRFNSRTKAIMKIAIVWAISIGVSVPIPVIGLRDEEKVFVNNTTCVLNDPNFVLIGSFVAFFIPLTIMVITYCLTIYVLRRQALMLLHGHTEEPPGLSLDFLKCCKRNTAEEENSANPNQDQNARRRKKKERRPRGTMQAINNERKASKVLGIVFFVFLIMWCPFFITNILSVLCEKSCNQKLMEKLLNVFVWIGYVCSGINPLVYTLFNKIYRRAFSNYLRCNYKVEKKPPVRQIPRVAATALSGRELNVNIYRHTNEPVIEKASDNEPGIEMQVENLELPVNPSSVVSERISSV

[6] = molecular target: T4, 5-HT2a (Homo sapiens, UniProt P28223); experiment: Radioligand binding, 5-HT2a ([3H]Ketanserin); settings: Table 4; [3H]Ketanserin 1 nM; read-out: Binding affinity, IC50 (nM) 5-HT2a
T4 construct: purchased Euroscreen/BioSignal Packard Inc
T4 sequence (P28223 whole entry): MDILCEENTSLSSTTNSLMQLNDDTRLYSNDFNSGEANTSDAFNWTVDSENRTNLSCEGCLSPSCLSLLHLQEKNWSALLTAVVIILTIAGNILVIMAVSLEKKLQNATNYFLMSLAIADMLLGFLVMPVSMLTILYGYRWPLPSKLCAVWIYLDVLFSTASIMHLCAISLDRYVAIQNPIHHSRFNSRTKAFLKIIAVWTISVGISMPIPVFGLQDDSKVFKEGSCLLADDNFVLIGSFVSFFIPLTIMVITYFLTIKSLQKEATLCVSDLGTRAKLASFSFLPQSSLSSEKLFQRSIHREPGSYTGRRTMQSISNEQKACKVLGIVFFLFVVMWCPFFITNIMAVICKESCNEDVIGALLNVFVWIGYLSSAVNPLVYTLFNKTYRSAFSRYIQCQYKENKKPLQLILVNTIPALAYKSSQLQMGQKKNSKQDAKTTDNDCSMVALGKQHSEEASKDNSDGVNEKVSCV

[7] = molecular target: T5, 5-HT7 (Homo sapiens, UniProt P34969); experiment: Radioligand binding, 5-HT7 ([3H]LSD); settings: Table 4; [3H]LSD 3 nM; read-out: Binding affinity, IC50 (nM) 5-HT7
T5 construct: purchased Euroscreen/BioSignal Packard Inc
T5 sequence (P34969 whole entry): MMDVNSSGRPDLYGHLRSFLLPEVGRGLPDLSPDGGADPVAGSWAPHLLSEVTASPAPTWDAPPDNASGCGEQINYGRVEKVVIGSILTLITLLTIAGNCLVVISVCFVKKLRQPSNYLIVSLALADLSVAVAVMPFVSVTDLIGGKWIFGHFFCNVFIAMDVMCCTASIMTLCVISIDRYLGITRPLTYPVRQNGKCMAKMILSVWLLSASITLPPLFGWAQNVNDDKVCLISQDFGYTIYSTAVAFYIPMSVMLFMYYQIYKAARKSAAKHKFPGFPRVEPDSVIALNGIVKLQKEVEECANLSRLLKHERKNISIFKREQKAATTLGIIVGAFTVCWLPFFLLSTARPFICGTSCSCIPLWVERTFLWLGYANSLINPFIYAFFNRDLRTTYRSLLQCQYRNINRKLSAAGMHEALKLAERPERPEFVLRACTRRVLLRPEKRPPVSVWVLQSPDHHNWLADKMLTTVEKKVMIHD

[8] = molecular target: T6, Human serotonin 5-HT6 receptor (Homo sapiens, UniProt P50406); experiment: [3H]LSD binding assay on cloned 5-HT6 receptor membranes; settings: for binding affinity at 5-HT6 receptor labeled by [3H]LSD, in words: comment on Table 2
T6 construct: made in house; host or cells: insect Sf21 cells (baculovirus vector BacPAK8)
T6 sequence (P50406 whole entry): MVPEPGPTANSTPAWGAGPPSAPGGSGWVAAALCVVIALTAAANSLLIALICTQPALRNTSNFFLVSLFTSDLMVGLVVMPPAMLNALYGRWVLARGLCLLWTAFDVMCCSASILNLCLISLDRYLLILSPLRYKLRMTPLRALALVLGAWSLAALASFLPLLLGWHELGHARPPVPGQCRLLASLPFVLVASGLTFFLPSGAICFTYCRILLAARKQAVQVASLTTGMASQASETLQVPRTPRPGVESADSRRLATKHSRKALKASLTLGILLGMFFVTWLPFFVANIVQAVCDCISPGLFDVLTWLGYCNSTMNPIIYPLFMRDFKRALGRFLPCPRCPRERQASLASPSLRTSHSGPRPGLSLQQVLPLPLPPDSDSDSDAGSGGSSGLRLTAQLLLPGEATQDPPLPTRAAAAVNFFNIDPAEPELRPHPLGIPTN

[9] = molecular target: D1 (Homo sapiens, UniProt P21728); experiment: Radioligand binding, dopamine D1; settings: Table 4; read-out: Binding affinity, IC50 (nM) D1
D1, sequence (P21728 whole entry): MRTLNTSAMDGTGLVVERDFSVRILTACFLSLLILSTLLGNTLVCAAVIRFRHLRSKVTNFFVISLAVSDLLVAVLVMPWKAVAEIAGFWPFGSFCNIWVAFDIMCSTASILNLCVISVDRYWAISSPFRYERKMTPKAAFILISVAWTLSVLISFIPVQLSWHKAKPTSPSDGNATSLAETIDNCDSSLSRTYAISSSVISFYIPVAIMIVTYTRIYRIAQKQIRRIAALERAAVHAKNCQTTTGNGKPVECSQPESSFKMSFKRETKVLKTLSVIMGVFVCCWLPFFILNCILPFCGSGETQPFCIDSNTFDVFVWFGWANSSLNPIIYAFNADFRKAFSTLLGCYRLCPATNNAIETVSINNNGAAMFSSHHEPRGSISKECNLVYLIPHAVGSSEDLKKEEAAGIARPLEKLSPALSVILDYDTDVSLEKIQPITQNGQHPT

[10] = molecular target: T7, hD3 (Homo sapiens, UniProt P35462); experiment: Radioligand binding, dopamine D3 ([3H]spiperone); settings: Table 4; [3H]spiperone 1 nM; read-out: Binding affinity, IC50 (nM) D3
T7 construct: purchased BioSignal Packard Inc., Montreal, Canada
T7 sequence (P35462 whole entry): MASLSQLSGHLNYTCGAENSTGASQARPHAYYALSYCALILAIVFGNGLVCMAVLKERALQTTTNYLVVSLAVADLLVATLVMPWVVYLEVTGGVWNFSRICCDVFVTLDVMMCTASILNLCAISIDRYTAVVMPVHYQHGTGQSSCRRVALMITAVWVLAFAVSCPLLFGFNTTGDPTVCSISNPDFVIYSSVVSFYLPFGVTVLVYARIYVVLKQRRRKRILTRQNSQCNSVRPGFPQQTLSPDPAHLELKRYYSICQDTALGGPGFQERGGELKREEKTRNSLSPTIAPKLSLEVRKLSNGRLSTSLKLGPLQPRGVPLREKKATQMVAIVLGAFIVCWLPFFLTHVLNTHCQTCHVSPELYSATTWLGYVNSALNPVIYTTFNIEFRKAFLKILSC
How it was run: as §1

[11] = molecular target: T8, 5-HT1a (Homo sapiens, UniProt P08908); experiment: Radioligand binding, 5-HT1a ([3H]8-OH-DPAT); settings: Table 4; [3H]8-OH-DPAT 0.5 nM; read-out: Binding affinity, IC50 (nM) 5-HT1a
T8 construct: purchased Euroscreen/BioSignal Packard Inc
T8 sequence (P08908 1-422): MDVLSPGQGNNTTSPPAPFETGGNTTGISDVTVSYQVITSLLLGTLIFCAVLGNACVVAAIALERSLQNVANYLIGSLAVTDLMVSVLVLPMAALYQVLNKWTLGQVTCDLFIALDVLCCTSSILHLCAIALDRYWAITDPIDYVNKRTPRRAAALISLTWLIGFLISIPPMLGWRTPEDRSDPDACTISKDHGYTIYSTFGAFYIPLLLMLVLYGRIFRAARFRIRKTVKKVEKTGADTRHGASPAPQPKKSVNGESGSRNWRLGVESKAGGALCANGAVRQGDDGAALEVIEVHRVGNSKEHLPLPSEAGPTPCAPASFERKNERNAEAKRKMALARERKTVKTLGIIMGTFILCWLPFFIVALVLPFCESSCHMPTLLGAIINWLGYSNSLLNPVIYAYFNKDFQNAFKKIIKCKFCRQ
How it was run: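 Binding was measured on commercial receptor membrane preparations, following the membrane supplier's own test protocol.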

[12] = Table 2, 1.87 nM [3H]LSD, 37 C, 60 min, read-out: IC50 (nM), binding affinity to the 5-HT6 receptor
[13] = Table 4, read-out: Binding affinity, IC50 (nM) 5-HT6

SMILES	IC50 [1]	IC50 [2]	melting point	TD50 at 120 min [3]	Rotarod deficit (%) ([4]; 200 p.o. (dose unit not given))	Rotarod deficit (%) ([4]; 300 p.o. (dose unit not given))	Rotarod deficit (%) ([4]; 400 p.o. (dose unit not given))	IC50 [5]	IC50 [6]	IC50 [7]	IC50 [8, 12]	IC50 [8, 13]	binding affinity at 5-HT6 receptor labeled by [3H]LSD, in words [8]	IC50 [9]	IC50 [10]	IC50 [11]
CN1CCN(c2cc(Cl)cc3c2C(=O)C(C)(c2ccccc2)C(=O)N3Cc2ccccc2)CC1 (stereo not drawn) [Example 11, 1-Benzyl-7-chloro-3-methyl-5-(4-methyl-piperazin-1-yl)-3-phenyl-1H-quinoline-2,4-dione]	> 10000 nM	844 nM	138 to 140 °C	> 400 mg/kg	0%	0%	0%	514 nM	1230 nM	2200 nM	1.4 nM	1.4 nM	significant affinities	4670 nM	678 nM	2590 nM
CN1CCN(c2cc(Cl)cc3c2C(=O)C(C)(c2ccc(O)cc2)C(=O)N3Cc2cccc(N)c2)CC1 (stereo not drawn) [Example 10, 1-(3-Amino-benzyl)-7-chloro-3-(4-hydroxy-phenyl)-3-methyl-5-(4-methyl-piperazin-1-yl)-1H-quinoline-2,4-dione]	> 10000 nM	> 10000 nM		> 400 mg/kg	0%	0%	0%	> 10000 nM	> 10000 nM	> 10000 nM	6.2 nM	6.2 nM		> 10000 nM	5370 nM	> 10000 nM
COc1ccc(C2(C)C(=O)c3c(N4CCNCC4)cc(Cl)cc3N(Cc3cccc(Br)c3)C2=O)cc1 (stereo not drawn) [Example 33, 1-(3-Bromo-benzyl)-7-chloro-3-(4-methoxy-phenyl)-3-methyl-5-piperazin-1-yl-1H-quinoline-2,4-dione]	> 10000 nM	> 1000 nM	113 to 114 °C	> 400 mg/kg	0%	0%	0%	> 1000 nM	> 1000 nM	> 10000 nM	1.8 nM	1.8 nM	significant affinities	> 1000 nM	> 1000 nM	> 1000 nM
C[C@@]1(c2ccc(O)cc2)C(=O)c2c(N3CCNCC3)cc(Cl)cc2N(Cc2ccccc2)C1=O [Example 14-2, (R)-1-Benzyl-7-chloro-3-(4-hydroxy-phenyl)-3-methyl-5-piperazin-1-yl-1H-quinoline-2,4-dione]	> 10000 nM	> 10000 nM		> 400 mg/kg	0%	0%	0%	> 10000 nM	6380 nM	9240 nM	13.3 nM	13.3 nM		1540 nM	1760 nM	5890 nM
COc1ccc([C@@]2(C)C(=O)c3c(N4CCNCC4)cc(Cl)cc3N(Cc3ccccc3)C2=O)cc1 [Example 13-1, (S)-1-Benzyl-7-chloro-3-(4-methoxy-phenyl)-3-methyl-5-piperazin-1-yl-1H-quinoline-2,4-dione]	> 10000 nM	> 10000 nM		> 400 mg/kg	0%	0%	0%	7740 nM	2510 nM	5850 nM	1.4 nM	1.4 nM	significant affinities	6150 nM	8930 nM	5430 nM
C[C@]1(c2ccc(O)cc2)C(=O)c2c(N3CCNCC3)cc(Cl)cc2N(Cc2ccccc2)C1=O [Example 14-1, (S)-1-Benzyl-7-chloro-3-(4-hydroxy-phenyl)-3-methyl-5-piperazin-1-yl-1H-quinoline-2,4-dione]	> 10000 nM	> 10000 nM		> 400 mg/kg	0%	0%	0%	> 10000 nM	2000 nM	9860 nM	1.9 nM	1.9 nM	significant affinities	7070 nM	7650 nM	7950 nM
CC1(c2ccccc2)C(=O)c2c(N3CCNCC3)cc(Cl)cc2N(Cc2ccccc2)C1=O (stereo not drawn) [Example 22, 1-Benzyl-7-chloro-3-methyl-3-phenyl-5-piperazin-1-yl-1H-quinoline-2,4-dione]	> 10000 nM	2450 nM		> 400 mg/kg	0%	0%	0%	1830 nM	2900 nM	5070 nM	2.7 nM	2.3 nM		5140 nM	1810 nM	3910 nM
CC1(c2ccc([N+](=O)[O-])cc2)C(=O)c2c(N3CCNCC3)cc(Cl)cc2N(Cc2ccccc2)C1=O (stereo not drawn) [Example 15, 1-Benzyl-7-chloro-3-methyl-3-(4-nitro-phenyl)-5-piperazin-1-yl-1H-quinoline-2,4-dione]	9460 nM	6660 nM	145 to 146 °C					9950 nM	8120 nM	9510 nM	12.1 nM	15.2 nM		5810 nM	9740 nM	6350 nM
COc1ccc([C@]2(C)C(=O)c3c(N4CCNCC4)cc(Cl)cc3N(Cc3ccccc3)C2=O)cc1 [Example 13-2, (R)-1-Benzyl-7-chloro-3-(4-methoxy-phenyl)-3-methyl-5-piperazin-1-yl-1H-quinoline-2,4-dione]	> 10000 nM	> 10000 nM		> 400 mg/kg	0%	0%	0%	9740 nM	2840 nM	9520 nM	9 nM	9 nM		5210 nM	2580 nM	3280 nM
